Measured values taken from patent US12479847B2 (DANA-FARBER CANCER INSTITUTE, INC., priority 2019, dated 2025).

What was measured:
Assay in all cases: KINOMEscan (ScanMAX) kinase profiling
Type in all cases: binding
panel of 468 kinases [1] = biological target: T1, panel of 468 kinases (Homo sapiens, UniProt Q86V86); conditions: PIM3; 1 μM; read-out: % control
T1 construct: purchased KINOMEscan (ScanMAX) service

panel of 468 kinases [2] = biological target: T2, panel of 468 kinases (Homo sapiens, UniProt P36888, N841I); conditions: FLT3(N841I); 1 μM; read-out: % control
T2 construct: purchased KINOMEscan (ScanMAX) service
T2 sequence (P36888 27-993 N841I): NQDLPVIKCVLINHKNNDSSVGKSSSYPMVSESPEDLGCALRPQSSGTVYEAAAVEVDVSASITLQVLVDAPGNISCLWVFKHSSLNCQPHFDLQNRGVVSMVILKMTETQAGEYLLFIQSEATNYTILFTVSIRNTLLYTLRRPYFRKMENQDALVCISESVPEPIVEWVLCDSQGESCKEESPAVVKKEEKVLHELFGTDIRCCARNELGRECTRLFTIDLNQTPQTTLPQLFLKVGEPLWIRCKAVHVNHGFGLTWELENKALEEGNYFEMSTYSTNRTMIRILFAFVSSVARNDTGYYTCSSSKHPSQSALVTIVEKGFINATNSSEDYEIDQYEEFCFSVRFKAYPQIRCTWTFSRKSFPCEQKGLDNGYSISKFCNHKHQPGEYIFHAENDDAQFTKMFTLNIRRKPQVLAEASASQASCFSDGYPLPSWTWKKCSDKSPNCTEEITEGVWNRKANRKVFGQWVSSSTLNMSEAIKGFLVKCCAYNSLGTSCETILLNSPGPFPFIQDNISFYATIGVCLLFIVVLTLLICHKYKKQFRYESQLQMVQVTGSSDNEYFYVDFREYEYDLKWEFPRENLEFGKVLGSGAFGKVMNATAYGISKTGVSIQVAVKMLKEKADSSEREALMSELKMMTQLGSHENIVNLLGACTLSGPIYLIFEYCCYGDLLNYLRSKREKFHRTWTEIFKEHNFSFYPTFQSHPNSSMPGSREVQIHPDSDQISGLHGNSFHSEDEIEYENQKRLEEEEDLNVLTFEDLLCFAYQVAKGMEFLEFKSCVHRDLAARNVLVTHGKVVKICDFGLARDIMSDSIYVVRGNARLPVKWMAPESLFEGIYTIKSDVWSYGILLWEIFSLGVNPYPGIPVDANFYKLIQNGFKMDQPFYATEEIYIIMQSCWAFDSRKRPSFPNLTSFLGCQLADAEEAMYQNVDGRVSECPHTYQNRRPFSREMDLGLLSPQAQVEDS

panel of 468 kinases [3] = biological target: T3, panel of 468 kinases (Homo sapiens, UniProt P53355); conditions: DAPK1; 1 μM; read-out: % control
T3 construct: purchased KINOMEscan (ScanMAX) service
T3 sequence (P53355 whole entry): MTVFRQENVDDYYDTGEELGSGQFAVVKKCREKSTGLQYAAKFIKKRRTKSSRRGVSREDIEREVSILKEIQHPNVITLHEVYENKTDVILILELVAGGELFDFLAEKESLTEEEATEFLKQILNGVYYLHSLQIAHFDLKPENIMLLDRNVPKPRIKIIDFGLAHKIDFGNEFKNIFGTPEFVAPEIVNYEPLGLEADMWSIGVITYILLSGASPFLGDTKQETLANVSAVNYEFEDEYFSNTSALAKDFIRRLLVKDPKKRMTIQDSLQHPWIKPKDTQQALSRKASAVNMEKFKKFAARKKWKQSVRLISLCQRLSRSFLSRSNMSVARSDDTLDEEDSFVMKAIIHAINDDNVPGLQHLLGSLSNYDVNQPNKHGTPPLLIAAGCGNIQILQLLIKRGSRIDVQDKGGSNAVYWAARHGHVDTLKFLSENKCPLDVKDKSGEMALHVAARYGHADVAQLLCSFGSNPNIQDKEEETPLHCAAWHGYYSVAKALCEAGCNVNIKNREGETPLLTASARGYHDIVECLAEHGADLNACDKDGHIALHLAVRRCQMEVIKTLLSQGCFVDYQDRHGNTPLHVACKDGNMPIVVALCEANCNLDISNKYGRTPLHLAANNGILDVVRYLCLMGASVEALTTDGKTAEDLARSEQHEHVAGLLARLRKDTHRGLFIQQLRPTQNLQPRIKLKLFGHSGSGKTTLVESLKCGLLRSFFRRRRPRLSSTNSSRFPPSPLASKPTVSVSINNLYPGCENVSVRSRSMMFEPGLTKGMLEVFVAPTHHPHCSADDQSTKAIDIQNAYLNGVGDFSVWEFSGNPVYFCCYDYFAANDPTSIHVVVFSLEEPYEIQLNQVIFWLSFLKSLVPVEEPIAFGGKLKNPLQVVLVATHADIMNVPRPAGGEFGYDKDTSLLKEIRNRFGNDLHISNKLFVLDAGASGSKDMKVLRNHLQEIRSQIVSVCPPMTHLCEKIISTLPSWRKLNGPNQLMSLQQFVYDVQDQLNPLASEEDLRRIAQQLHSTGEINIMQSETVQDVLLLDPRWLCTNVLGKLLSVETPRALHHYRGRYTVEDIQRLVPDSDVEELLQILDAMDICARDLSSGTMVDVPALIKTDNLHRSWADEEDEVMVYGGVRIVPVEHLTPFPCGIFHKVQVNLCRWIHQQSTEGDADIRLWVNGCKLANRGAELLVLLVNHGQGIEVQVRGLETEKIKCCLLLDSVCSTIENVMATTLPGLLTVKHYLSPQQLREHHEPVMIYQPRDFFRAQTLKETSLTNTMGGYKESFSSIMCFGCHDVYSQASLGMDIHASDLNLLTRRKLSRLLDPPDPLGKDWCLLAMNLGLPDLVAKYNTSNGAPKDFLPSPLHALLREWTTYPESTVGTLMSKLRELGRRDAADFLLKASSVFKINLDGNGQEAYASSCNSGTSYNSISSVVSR

panel of 468 kinases [4] = biological target: T4, panel of 468 kinases (Homo sapiens, UniProt Q8IU85); conditions: CAMK1D; 1 μM; read-out: % control
T4 construct: purchased KINOMEscan (ScanMAX) service
T4 sequence (Q8IU85 whole entry): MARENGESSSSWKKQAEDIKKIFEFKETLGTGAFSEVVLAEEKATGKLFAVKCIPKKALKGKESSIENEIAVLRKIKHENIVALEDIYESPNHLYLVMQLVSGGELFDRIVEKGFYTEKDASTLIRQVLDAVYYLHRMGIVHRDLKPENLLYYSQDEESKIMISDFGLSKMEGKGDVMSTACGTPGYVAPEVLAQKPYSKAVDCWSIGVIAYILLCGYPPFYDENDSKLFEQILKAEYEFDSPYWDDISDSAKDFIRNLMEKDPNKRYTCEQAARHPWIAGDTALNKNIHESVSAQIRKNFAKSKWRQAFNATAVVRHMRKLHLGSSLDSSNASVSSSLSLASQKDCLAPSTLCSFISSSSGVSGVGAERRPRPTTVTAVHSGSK

panel of 468 kinases [5] = biological target: T5, panel of 468 kinases (Homo sapiens, UniProt Q06418); conditions: TYRO3; 1 μM; read-out: % control
T5 construct: purchased KINOMEscan (ScanMAX) service
T5 sequence (Q06418 41-890): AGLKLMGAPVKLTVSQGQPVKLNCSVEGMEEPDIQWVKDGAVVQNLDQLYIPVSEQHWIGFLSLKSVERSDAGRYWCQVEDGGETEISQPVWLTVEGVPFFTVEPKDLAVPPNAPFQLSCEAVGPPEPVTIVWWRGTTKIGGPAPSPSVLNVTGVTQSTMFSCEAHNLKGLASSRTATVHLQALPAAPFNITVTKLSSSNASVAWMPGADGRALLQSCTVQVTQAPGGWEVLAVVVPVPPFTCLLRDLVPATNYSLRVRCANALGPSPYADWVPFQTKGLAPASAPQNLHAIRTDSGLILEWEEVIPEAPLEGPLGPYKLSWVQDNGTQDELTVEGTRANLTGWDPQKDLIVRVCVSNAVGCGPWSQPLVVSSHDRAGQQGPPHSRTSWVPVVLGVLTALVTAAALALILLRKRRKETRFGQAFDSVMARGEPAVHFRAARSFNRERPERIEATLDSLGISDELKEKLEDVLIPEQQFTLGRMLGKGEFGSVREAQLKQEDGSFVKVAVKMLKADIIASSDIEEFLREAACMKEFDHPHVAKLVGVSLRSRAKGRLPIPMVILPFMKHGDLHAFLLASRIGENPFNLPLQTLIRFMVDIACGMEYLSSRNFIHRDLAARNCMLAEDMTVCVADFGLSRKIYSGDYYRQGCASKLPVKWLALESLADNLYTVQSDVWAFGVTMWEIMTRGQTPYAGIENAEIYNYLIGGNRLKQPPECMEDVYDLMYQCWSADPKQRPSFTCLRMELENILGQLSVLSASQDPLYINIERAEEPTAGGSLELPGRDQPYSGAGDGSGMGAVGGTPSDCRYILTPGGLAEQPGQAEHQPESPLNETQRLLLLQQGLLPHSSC

panel of 468 kinases [6] = biological target: T6, panel of 468 kinases (Homo sapiens, UniProt Q86UE8); conditions: TLK2; 1 μM; read-out: % control
T6 construct: purchased KINOMEscan (ScanMAX) service
T6 sequence (Q86UE8 whole entry): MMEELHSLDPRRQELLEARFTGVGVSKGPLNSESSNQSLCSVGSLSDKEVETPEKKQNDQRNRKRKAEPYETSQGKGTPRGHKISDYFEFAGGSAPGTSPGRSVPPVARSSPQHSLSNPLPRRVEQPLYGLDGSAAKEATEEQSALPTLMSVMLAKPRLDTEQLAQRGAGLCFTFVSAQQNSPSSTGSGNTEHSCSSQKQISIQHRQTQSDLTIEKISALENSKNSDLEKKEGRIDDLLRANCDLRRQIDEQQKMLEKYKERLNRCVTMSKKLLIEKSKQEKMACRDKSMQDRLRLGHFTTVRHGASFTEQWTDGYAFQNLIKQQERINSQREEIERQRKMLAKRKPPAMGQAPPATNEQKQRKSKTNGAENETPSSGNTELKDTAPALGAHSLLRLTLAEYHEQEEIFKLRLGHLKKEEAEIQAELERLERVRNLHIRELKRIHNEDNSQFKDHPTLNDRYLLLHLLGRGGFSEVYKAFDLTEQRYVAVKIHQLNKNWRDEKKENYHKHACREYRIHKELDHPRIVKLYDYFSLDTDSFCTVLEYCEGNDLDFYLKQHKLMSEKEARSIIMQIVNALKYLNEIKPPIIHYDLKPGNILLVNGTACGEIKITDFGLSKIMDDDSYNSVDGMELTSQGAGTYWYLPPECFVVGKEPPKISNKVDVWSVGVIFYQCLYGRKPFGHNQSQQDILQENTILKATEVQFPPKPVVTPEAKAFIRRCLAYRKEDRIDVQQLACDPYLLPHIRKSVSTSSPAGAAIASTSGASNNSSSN

panel of 468 kinases [7] = biological target: T7, panel of 468 kinases (Homo sapiens, UniProt Q13464); conditions: ROCK1; 1 μM; read-out: % control
T7 construct: purchased KINOMEscan (ScanMAX) service
T7 sequence (Q13464 whole entry): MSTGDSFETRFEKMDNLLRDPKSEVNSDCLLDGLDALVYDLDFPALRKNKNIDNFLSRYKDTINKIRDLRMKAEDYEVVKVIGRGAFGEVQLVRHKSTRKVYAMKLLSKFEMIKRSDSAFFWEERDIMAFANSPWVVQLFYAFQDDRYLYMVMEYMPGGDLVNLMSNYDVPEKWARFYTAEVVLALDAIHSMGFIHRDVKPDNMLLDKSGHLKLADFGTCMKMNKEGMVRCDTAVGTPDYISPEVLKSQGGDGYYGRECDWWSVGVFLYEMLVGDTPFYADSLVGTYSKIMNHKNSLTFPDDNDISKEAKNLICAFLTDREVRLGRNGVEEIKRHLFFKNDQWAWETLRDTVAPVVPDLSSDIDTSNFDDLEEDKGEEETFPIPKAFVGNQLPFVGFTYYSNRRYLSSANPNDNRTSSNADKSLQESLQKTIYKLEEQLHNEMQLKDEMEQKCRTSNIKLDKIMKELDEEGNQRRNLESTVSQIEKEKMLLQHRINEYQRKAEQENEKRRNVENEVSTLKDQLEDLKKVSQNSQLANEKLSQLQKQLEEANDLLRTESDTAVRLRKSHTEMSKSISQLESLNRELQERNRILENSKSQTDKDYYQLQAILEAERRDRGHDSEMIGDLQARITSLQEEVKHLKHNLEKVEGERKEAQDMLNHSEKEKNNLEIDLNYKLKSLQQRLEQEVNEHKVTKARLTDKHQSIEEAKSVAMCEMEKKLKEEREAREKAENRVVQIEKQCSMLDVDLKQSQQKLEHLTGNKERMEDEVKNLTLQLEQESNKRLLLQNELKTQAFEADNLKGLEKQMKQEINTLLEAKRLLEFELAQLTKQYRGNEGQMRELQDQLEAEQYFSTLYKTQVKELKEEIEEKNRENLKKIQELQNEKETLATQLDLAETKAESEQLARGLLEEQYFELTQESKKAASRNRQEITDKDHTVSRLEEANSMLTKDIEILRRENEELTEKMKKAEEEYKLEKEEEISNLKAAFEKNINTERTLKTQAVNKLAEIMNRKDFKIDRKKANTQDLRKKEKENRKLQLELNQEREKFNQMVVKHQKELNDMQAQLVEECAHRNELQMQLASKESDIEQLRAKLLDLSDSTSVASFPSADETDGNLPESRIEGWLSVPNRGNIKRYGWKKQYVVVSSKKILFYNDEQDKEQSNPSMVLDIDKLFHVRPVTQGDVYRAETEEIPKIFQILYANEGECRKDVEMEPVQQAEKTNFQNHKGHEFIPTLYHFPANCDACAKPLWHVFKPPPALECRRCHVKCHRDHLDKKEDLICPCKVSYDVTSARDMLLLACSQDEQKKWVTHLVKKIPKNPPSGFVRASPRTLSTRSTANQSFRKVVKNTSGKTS

panel of 468 kinases [8] = biological target: T8, panel of 468 kinases (Homo sapiens, UniProt Q96PN8); conditions: TSSK3; 1 μM; read-out: % control
T8 construct: purchased KINOMEscan (ScanMAX) service
T8 sequence (Q96PN8 1-268): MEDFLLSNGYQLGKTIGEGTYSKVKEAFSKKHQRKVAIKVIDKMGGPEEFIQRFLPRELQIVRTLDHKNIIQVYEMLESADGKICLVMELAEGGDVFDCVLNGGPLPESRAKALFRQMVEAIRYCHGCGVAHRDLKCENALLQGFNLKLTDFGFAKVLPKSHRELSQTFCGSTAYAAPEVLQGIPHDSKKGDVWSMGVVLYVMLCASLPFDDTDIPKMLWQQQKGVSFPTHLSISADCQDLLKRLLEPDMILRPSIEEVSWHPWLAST

panel of 468 kinases [9] = biological target: T9, panel of 468 kinases (Homo sapiens, UniProt Q00526); conditions: CDK3; 1 μM; read-out: % control
T9 construct: purchased KINOMEscan (ScanMAX) service
T9 sequence (Q00526 whole entry): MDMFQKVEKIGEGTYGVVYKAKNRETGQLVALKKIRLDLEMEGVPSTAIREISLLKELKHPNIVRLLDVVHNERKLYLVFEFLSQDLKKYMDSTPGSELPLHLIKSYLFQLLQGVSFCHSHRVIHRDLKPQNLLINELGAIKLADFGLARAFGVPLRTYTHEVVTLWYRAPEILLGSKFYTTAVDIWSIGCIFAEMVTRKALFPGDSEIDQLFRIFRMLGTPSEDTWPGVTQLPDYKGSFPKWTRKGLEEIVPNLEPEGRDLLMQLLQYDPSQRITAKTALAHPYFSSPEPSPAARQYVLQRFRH

CNc1nc(Nc2ccc(S(=O)(=O)N3CCC(N4CCOCC4)CC3)cc2OC)nc2[nH]cc(Cl)c12 [Compound 12, 5-chloro-N2-(2-methoxy-4-((4-morpholinopiperidin-1-yl)sulfonyl)phenyl)-N4-methyl-7H-pyrrolo[2,3-d]pyrimidine-2,4-diamine]
remaining binding at 1 µM (panel of 468 kinases [1]): 100%
remaining binding at 1 µM (panel of 468 kinases [2]): 85%
remaining binding at 1 µM (panel of 468 kinases [3]): 43%
remaining binding at 1 µM (panel of 468 kinases [4]): 96%
remaining binding at 1 µM (panel of 468 kinases [5]): 100%
remaining binding at 1 µM (panel of 468 kinases [6]): 100%
remaining binding at 1 µM (panel of 468 kinases [7]): 100%
remaining binding at 1 µM (panel of 468 kinases [8]): 100%
remaining binding at 1 µM (panel of 468 kinases [9]): 86%

CNc1nc(Nc2ccc(C(=O)N3CCC(N4CCOCC4)CC3)c3c2OCO3)nc2[nH]cc(Cl)c12 [Compound 75, (7-((5-chloro-4-(methylamino)-7H-pyrrolo[2,3-d]pyrimidin-2-yl)amino)benzo[d][1,3]dioxol-4-yl)(4-morpholinopiperidin-1-yl)methanone]
remaining binding at 1 µM (panel of 468 kinases [1]): 100%
remaining binding at 1 µM (panel of 468 kinases [2]): 65%
remaining binding at 1 µM (panel of 468 kinases [3]): 14%
remaining binding at 1 µM (panel of 468 kinases [4]): 47%
remaining binding at 1 µM (panel of 468 kinases [5]): 100%
remaining binding at 1 µM (panel of 468 kinases [6]): 100%
remaining binding at 1 µM (panel of 468 kinases [7]): 35%
remaining binding at 1 µM (panel of 468 kinases [8]): 100%
remaining binding at 1 µM (panel of 468 kinases [9]): 98%

CNc1nc(Nc2ccc(P3(=O)CCN(C4CCOCC4)CC3)cc2OC)nc2[nH]cc(Cl)c12 [Compound 77, 4-(4-((5-chloro-4-(methylamino)-7H-pyrrolo[2,3-d]pyrimidin-2-yl)amino)-3-methoxyphenyl)-1-(tetrahydro-2H-pyran-4-yl)-1,4-azaphosphinane 4-oxide]
remaining binding at 1 µM (panel of 468 kinases [1]): 100%
remaining binding at 1 µM (panel of 468 kinases [2]): 99%
remaining binding at 1 µM (panel of 468 kinases [3]): 8.3%
remaining binding at 1 µM (panel of 468 kinases [4]): 39%
remaining binding at 1 µM (panel of 468 kinases [5]): 100%
remaining binding at 1 µM (panel of 468 kinases [6]): 100%
remaining binding at 1 µM (panel of 468 kinases [7]): 95%
remaining binding at 1 µM (panel of 468 kinases [8]): 100%
remaining binding at 1 µM (panel of 468 kinases [9]): 95%
